Experimental data as given in PMC3424241, “The Octadecaneuropeptide ODN Protects Astrocytes against Hydrogen Peroxide-Induced Apoptosis via a PKA/MAPK-Dependent Mechanism” (PLoS ONE, 2012).

How the values were obtained:
[1] = tested on: cultured rat astrocytes; assay: Cell survival after H2O2, FDA fluorescence; format: cell-based; conditions: for effect of pathway inhibitor on the protective action of ODN: H89 20 µM, U0126 20 µM, U73122 10 µM, chelerythrine 0.1 µM; for effect of inhibitor on dbcAMP-promoted astroglial cell survival: H89 20 µM or U0126 20 µM, 1 h 300 µM H2O2 with dbcAMP 1 mM; for protective effect of receptor ligand on H2O2-induced cell death: 30 min pre-incubation with ligand (OP 0.1 nM, [Ala15]ODN 0.1 nM, clonazepam 10 nM), then 1 h 300 µM H2O2
Protocol: Secondary cultures of rat cortical astrocytes were prepared as previously described [64]with minor modifications. Briefly, cerebral hemispheres from newborn Wistar rats were collected in DMEM/F12 (2∶1; v/v) culture medium supplemented with 2 mM L-glutamine, 1‰ insulin, 5 mM HEPES, 0.4% glucose and 1% of the antibiotic-antimycotic solution. The tissues were dissociated mechanically with a syringe equipped with a 1-mm gauge needle, and filtered through a 100-µm sieve (Falcon, Franklin Lakes, NJ, USA). […] When cultures were confluent, astrocytes were isolated by shaking overnight the flasks on an orbital agitator. Adhesive cells were detached by trypsination and preplated for 5 min to discard contaminating microglial cells. Then, the non-adhering astrocytes were harvested and plated on 35-mm hydrophilic surface Petri dishes at a density of 3×10^5 cells/ml. […] The cells were incubated at 37°C in a humid atmosphere (5% CO2). […] All experiments were performed on 5- to 7-day-old secondary cultures.
Cultured cells were incubated at 37°C with fresh serum-free culture medium in the absence or presence of H2O2 and/or ODN for 1 h. Cells were then incubated for 10 min at 37°C with 0.3 µg/ml calcein-AM (producing green fluorescence in living cells), rinsed twice with culture medium without probe and examined on an inverted microscope (Leica, Heidelberg, Germany) equipped with a double pass filter.
For quantification of surviving astrocytes, cells were incubated for 8 min with 15 µg/ml FDA-AM, rinsed twice with phosphate-buffered saline (PBS) and lysed with a Tris/HCl solution containing 1% sodium dodecyl sulfate (SDS). Fluorescence was measured with excitation at 485 nm and emission at 538 nm, using a microplate reader (Bio-Tek FLx 800).

[2] = tested on: caspase-3; assay: Caspase-3 activity, fluorometric Z-DEVD-Rhodamine 110; format: cell-based, rat; conditions: for effect of inhibitor on the inhibitory action of ODN on H2O2-induced caspase-3 activity: H89 20 µM, U0126 20 µM, U73122 1 µM, chelerythrine 1 µM, 30 min pre-incubation, 1 h 300 µM H2O2 with ODN 0.1 nM
Protocol: (§1) Secondary cultures of rat cortical astrocytes were prepared as previously described [64]with minor modifications. Briefly, cerebral hemispheres from newborn Wistar rats were collected in DMEM/F12 (2∶1; v/v) culture medium supplemented with 2 mM L-glutamine, 1‰ insulin, 5 mM HEPES, 0.4% glucose and 1% of the antibiotic-antimycotic solution. The tissues were dissociated mechanically with a syringe equipped with a 1-mm gauge needle, and filtered through a 100-µm sieve (Falcon, Franklin Lakes, NJ, USA). Dissociated cells were resuspended in culture medium supplemented with 10% FBS, plated in 175-cm^2 flasks (Greiner Bio-one GmbH, Frickenhausen, Germany) and incubated at 37°C in a 5% CO2/[…] atmosphere. When cultures were confluent, astrocytes were isolated by shaking overnight the flasks on an orbital agitator. Adhesive cells were detached by trypsination and preplated for 5 min to discard contaminating microglial cells. Then, the non-adhering astrocytes were harvested and plated on 35-mm hydrophilic surface Petri dishes at a density of 3×10^5 cells/ml. For measurement of cell survival, caspase-3 activity and mitochondrial activity, cells were plated in hydrophilic surface 24-well plates at a density of 8×10^4 cells/ml. The cells were incubated at 37°C in a humid atmosphere (5% CO2). After 5 days (DIV5), more than 99% of the cells were labeled with antibodies against glial fibrillary acidic protein [65]. All experiments were performed on 5- to 7-day-old secondary cultures.
At the end of the incubation with test substances, cultured astrocytes were washed twice with PBS at 37°C, resuspended in DMEM (100 µl) and treated with fluorometric caspase-3 Apo-1 assay system. In brief, 100 µl of the cell suspension was incubated with 100 µl of kit buffer and caspase substrate in 96-well plates. Caspase-3 activity was calculated from the slope of the fluorescence measured every 15 min for 3 h with excitation at 485 nm and emission at 530 nm, and expressed as a percentage of the control.

[3] = tested on: ERK1 and ERK2; assay: ERK phosphorylation, Western blot; format: cell-based, rat; conditions: ODN 0.1 nM, 1 h; flumazenil 1 µM, cyclo1-8[DLeu5]OP 1 µM, H89 20 µM, U0126 20 µM
Protocol: as §1
Cultured cells were incubated at 37°C for 1 h with fresh serum-free medium in the absence or presence of test substances. Total proteins were extracted with lysis buffer containing 1% Triton X-100, 50 mM Tris/HCl and 10 mM EDTA. After centrifugation (20,000 g, 4°C, 15 min), the proteins contained in the supernatant were precipitated by addition of ice-cold 10% TCA. The extract was centrifuged (15,000 g, 4°C, 15 min) and washed three times with alcohol/ether. The pellet was denatured (100°C, 5 min) in 50 mM Tris/HCl (pH 7.5) containing 20% glycerol, 0.7 M 2-mercaptoethanol, 0.004% bromophenol blue and 3% SDS, and then migrated on a 10% SDS-polyacrylamide gel electrophoresis (PAGE). After separation, proteins were electrically transferred onto nitrocellulose membrane (Amersham, Les Ulis, France). […] Signal was quantified using an image analysis system (Biocom, Les Ulis, France).

[4] = tested on: glutathione (GSH) in cultured astrocytes; assay: Intracellular glutathione content, mBCl fluorescence; format: cell-based, rat; conditions: antagonist 1 µM, 30 min pre-incubation; ODN 0.1 nM, 1 h; flumazenil statement covers control and H2O2-treated cells
Protocol: as §1
Reduced GSH was measured by using the thiol-reactive probe mBCl. At the end of the treatment period, the culture medium was removed and the cells were incubated with the mBCl probe (40 µM) at 37°C for 30 min and then washed twice with PBS. Fluorescence intensity was measured with excitation at 360 nm and emission at 485 nm, using a microplate reader (Bio-Tek FLx 800).

[5] = tested on: cAMP formation in astroglial cells (adenylyl cyclase); assay: cAMP production, radioimmunoassay; format: cell-based, rat; conditions: antagonist 1 µM, 30 min pre-incubation with 0.1 mM IBMX; ODN 0.1 nM, 10 min
Protocol: Secondary cultures of rat cortical astrocytes were prepared as previously described [64]with minor modifications. Briefly, cerebral hemispheres from newborn Wistar rats were collected in DMEM/F12 (2∶1; v/v) culture medium supplemented with 2 mM L-glutamine, 1‰ insulin, 5 mM HEPES, 0.4% glucose and 1% of the antibiotic-antimycotic solution. The tissues were dissociated mechanically with a syringe equipped with a 1-mm gauge needle, and filtered through a 100-µm sieve (Falcon, Franklin Lakes, NJ, USA). Dissociated cells were resuspended in culture medium supplemented with 10% FBS, plated in 175-cm^2 flasks (Greiner Bio-one GmbH, Frickenhausen, Germany) and incubated at 37°C in a 5% CO2/[…] atmosphere. When cultures were confluent, astrocytes were isolated by shaking overnight the flasks on an orbital agitator. Adhesive cells were detached by trypsination and preplated for 5 min to discard contaminating microglial cells. Then, the non-adhering astrocytes were harvested and plated on 35-mm hydrophilic surface Petri dishes at a density of 3×10^5 cells/ml. […]
Cultured cells were pre-incubated for 30 min in serum-free medium containing 0.1 mM IBMX to inhibit phosphodiesterases, and then incubated in the same solution, in the presence or absence of test substances. […] The concentration of cAMP was measured by using a cAMP RIA kit. […]

[6] = 30 min pre-incubation, then 1 h 300 µM H2O2 with ODN 0.1 nM, FDA fluorescence

Compound	effect of pathway inhibitor on the protective action of ODN [1, 6]	effect of inhibitor on the inhibitory action of ODN on H2O2-induced caspase-3 activity [2]	effect of antagonist or inhibitor on ODN-induced ERK phosphorylation [3]	further results
CCCC(=O)Nc1ncnc2c1ncn2[C@@H]1O[C@@H]2COP(=O)(O)O[C@H]2[C@H]1OC(=O)CCC [dbcAMP, N^6,2′-O-dibutyryladenosine 3′,5′ cyclic monophosphate]				protective effect of cAMP analog on H2O2-evoked cell death ([1]; dbcAMP 1 mM, 1 h 300 µM H2O2, FDA fluorescence): mimicked the protective effect of ODN on H2O2-evoked cell death; effect of cAMP analog on H2O2-evoked caspase-3 activation ([2]; dbcAMP 1 mM, 1 h 300 µM H2O2): mimicked the effect ODN on H2O2-evoked caspase-3 activation
COc1ccc2c(c[n+](C)c3c4cc5c(cc4ccc23)OCO5)c1OC [chelerythrine]	did not modify the protective effect of ODN	neither U73122 nor chelerythrine could suppress the effect of ODN		
O=S(=O)(NCCNC/C=C/c1ccc(Br)cc1)c1cccc2cnccc12 [H89]	totally abrogated the protective action of ODN	abrogated the inhibitory effect of ODN on H2O2-induced caspase-3 activity	suppressed	effect of inhibitor on dbcAMP-promoted astroglial cell survival ([1]; 30 min pre-incubation): suppressed
N#CC(=C(/N)Sc1ccccc1N)/C(C#N)=C(/N)Sc1ccccc1N [U0126]	totally abrogated the protective action of ODN	abrogated the inhibitory effect of ODN on H2O2-induced caspase-3 activity	suppressed	effect of inhibitor on dbcAMP-promoted astroglial cell survival ([1]; 30 min pre-incubation): suppressed
O=C1CN=C(c2ccccc2Cl)c2cc([N+](=O)[O-])ccc2N1 [clonazepam]				protective effect of receptor ligand on H2O2-induced cell death ([1]; FDA fluorescence): unable to block the effect of H2O2
[Ala^15]ODN: inactive ODN analog (QATVGDVNTDRPGLADLK; Octadecaneuropeptide; UniProt P11030 34-51, looked up, variant L15A)				protective effect of receptor ligand on H2O2-induced cell death ([1]; FDA fluorescence): devoid of protective activity
CCOC(=O)c1ncn2c1CN(C)C(=O)c1cc(F)ccc1-2 [flumazenil]			did not affect ODN-induced ERK phosphorylation	effect of receptor antagonist on the glioprotective action of ODN ([1]; antagonist 1 µM, 30 min pre-incubation, then 1 h 300 µM H2O2 with ODN 0.1 nM, FDA fluorescence): did not affect the protective effect of ODN; effect of antagonist on ODN-stimulated GSH formation [4]: did not impair the effect of ODN on glutathione production neither in control nor in H2O2-treated cells; effect of antagonist on ODN-stimulated cAMP formation [5]: did not affect the increase of cAMP induced by ODN
COc1ccc2c(c1)CC[C@@H]1[C@@H]2CC[C@]2(C)[C@@H](NCCCCCCN3C(=O)C=CC3=O)CC[C@@H]12 [U73122]	did not modify the protective effect of ODN	neither U73122 nor chelerythrine could suppress the effect of ODN		
